From patent US20090163490A1, “Pyrrolopyrimidine Derivatives Used As HSP90 Inhibitors” (VERNALIS (R&D) LTD., priority 2006, published 2009)

Each compound was assayed against T1, human full-length HSP90 (Homo sapiens, UniProt P08238) (assay: Fluorescence polarization (FP) binding assay). Conditions: competitive displacement of fluorescein-labelled probe from human full-length HSP90; activity range; read-out: ACTIVITY* (Activity in the FP binding assay).
T1 construct: E. coli expressed human full-length HSP90 protein, purified >95%; made in house; host or cells: E. coli
T1 sequence (P08238 whole entry): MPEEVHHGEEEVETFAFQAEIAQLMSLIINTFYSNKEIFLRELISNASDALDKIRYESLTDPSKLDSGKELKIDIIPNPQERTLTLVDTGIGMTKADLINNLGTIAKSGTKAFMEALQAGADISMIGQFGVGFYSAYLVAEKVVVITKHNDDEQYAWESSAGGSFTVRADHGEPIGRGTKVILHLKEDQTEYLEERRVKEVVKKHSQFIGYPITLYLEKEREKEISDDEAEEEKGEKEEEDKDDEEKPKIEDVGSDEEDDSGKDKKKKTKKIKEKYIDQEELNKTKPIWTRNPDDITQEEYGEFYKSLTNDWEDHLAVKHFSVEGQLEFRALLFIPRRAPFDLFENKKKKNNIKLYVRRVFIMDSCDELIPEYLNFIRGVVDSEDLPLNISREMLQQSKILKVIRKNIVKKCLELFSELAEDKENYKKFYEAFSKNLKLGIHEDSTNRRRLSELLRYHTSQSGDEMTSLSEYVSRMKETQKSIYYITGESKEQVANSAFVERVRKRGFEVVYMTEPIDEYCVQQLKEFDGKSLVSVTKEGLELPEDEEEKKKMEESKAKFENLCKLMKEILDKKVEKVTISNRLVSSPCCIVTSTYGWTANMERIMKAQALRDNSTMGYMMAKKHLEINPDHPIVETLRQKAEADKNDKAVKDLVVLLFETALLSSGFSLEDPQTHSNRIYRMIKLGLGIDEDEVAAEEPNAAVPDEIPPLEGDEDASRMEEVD
Source text: Fluorescence Polarization Assay
Fluorescence polarization {also known as fluorescence anisotropy} measures the rotation of a fluorescing species in solution, where the larger molecule the more polarized the fluorescence emission. When the fluorophore is excited with polarized light, the emitted light is also polarized. The molecular size is proportional to the polarization of the fluorescence emission.
The fluoroscein-labelled probe—
binds to HSP90 {full-length human, full-length yeast or N-terminal domain HSP90} and the anisotropy {rotation of the probe:protein complex} is measured.
Test compound is added to the assay plate, left to equilibrate and the anisotropy measured again. Any change in anisotropy is due to competitive binding of compound to HSP90, thereby releasing probe.
Stored at room temperature. • 3) BSA (bovine serum albumen) 10 mg/ml (New England Biolabs # B9001S) • 4) 20 mM probe in 100% DMSO stock concentration. Stored in the dark at RT. Working concentration is 200 nM diluted in AR water and stored at 4° C.
• 1) Add 100 μl×buffer to wells 1A and 12A(=FP BLNK) • 2) Prepare assay mix—all reagents are kept on ice with a lid on the bucket as the probe is light-sensitive.
• 3) Aliquot 100 μl assay mix to all other wells • 4) Seal plate and leave in dark at room temp for 20 minutes to equilibrate
This gives 2.5 mM {50×} stock cpd−assuming cpds 20 mM. • 4) Repeat for wells A2 to A10. Control in columns 11 and 12. • 5) Transfer 5 μl from row A to row B—not column 12. Mix well. • 6) Transfer 5 μl from row B to row C. […] Add 2 μl of 100 mM standard cpd to wells B12-H12 {is positive control} • 13) The Z′ factor is calculated from zero controls and positive wells.
In the case of COc1cc(Cl)c(-c2nc(OCCN3CC[C@H](F)C3)nc3[nH]cc(C#N)c23)cc1OC [Example 58], the IC50 is reported as < 0.5 µM.
For COc1cc(-c2nc(OCCN3CCCC(F)(F)C3)nc3[nH]cc(C#N)c23)c(Cl)cc1C#N [Example 62], the IC50 was < 0.5 µM.
COc1cc(Cl)c(-c2nc(C(C)C)nc3[nH]cc(C#N)c23)cc1OC [Example 70] gave an IC50 of 0.5 to 10 µM.
With COc1cc(-c2nc(OCCN3CCCC(F)C3)nc3[nH]cc(C#N)c23)c(Cl)cc1C#N (stereo not shown) [Example 63] the IC50 was < 0.5 µM.
In the case of COc1cc(Cl)c(-c2nc(SC)nc3[nH]cc(C#N)c23)cc1OCCN1CC[C@H](F)C1 [Example 73], the IC50 is reported as < 0.5 µM.
In the case of COc1cc(Cl)c(-c2nc(OCCCN3CCOCC3)nc3[nH]cc(C#N)c23)cc1OC [Example 60], the IC50 is reported as < 0.5 µM.
With COc1cc(Cl)c(-c2nc(Sc3nccn3C)nc3[nH]cc(C#N)c23)cc1OC [Example 91] the IC50 was 0.5 to 10 µM.
CCc1nc(-c2cc(OCCN(CC)CC)c(OC)cc2Cl)c2c(C#N)c[nH]c2n1 [Example 67] was tested, and the IC50 was < 0.5 µM.
In the case of CCN(CC)CCCOc1nc(-c2cc(OC)c(OC)cc2Cl)c2c(C#N)c[nH]c2n1 [Example 59], the IC50 is reported as < 0.5 µM.
In the case of CCN(CC)CCOc1cc(-c2nc(SC3CCCC3)nc3[nH]cc(C#N)c23)c(Cl)cc1OC [Example 81], the IC50 is reported as < 0.5 µM.
CCN(CC)CCOc1cc(-c2nc(OC(C)C)nc3[nH]cc(C#N)c23)c(Cl)cc1OC [Example 79] was tested, and the IC50 was < 0.5 µM.
CSc1nc(-c2cc(OCc3ccccc3)c(Cl)cc2Cl)c2c(C#N)c[nH]c2n1 [Example 54] was tested, and the IC50 was 0.5 to 10 µM.
In the case of CSc1nc(-c2cc3c(cc2Cl)OCO3)c2c(C#N)c[nH]c2n1 [Example 77], the IC50 is reported as < 0.5 µM.
For CCN(CC)CCOc1cc(-c2nc(Sc3nccs3)nc3[nH]cc(C#N)c23)c(Cl)cc1OC [Example 92], the IC50 was < 0.5 µM.
CCN(CC)CCOc1cc(-c2nc(CC(C)C)nc3[nH]cc(C#N)c23)c(Cl)cc1OC [Example 82] gave an IC50 of 0.5 to 10 µM.
For COc1cc(Cl)c(-c2nc(SC(C)C)nc3[nH]cc(C#N)c23)cc1OCCN1CCC(F)(F)C1 [Example 75], the IC50 was < 0.5 µM.
For COc1cc(Cl)c(-c2nc(OCCN3CC[C@@H](F)C3)nc3[nH]cc(C#N)c23)cc1OC [Example 65], the IC50 was < 0.5 µM.
With COc1cc(Cl)c(-c2nc(OCCN3CCOCC3)nc3[nH]cc(C#N)c23)cc1OC [Example 61] the IC50 was < 0.5 µM.
CCN(CC)CCOc1cc(-c2nc(OC3CCCC3)nc3[nH]cc(C#N)c23)c(Cl)cc1OC [Example 80] was tested, and the IC50 was < 0.5 µM.
With CCOC(=O)C(C)Sc1nc(-c2cc(OCCN3CCC(F)(F)C3)c(OC)cc2Cl)c2c(C#N)c[nH]c2n1 (stereo not shown) [Example 88] the IC50 was < 0.5 µM.
In the case of COc1cc(Cl)c(-c2nc(Cc3ccccc3)nc3[nH]cc(C#N)c23)cc1OC [Example 87], the IC50 is reported as < 0.5 µM.
CCN(CC)CCOc1nc(-c2cc(OC)c(OC)cc2Cl)c2c(C#N)c[nH]c2n1 [Example 56] was tested, and the IC50 was < 0.5 µM.
With COc1cc(Cl)c(-c2nc(SC(C)(C)CN3CCC(F)(F)C3)nc3[nH]cc(C#N)c23)cc1OC [Example 90] the IC50 was < 0.5 µM.
In the case of CCN(CC)CCOc1cc(-c2nc(SC(C)C)nc3[nH]cc(C#N)c23)c(Cl)cc1OC [Example 68], the IC50 is reported as < 0.5 µM.

Same assay, conditions: competitive displacement of fluorescein-labelled probe from human full-length HSP90; activity range; read-out: activity in the fluorescence polarization assay
For CNC(=O)CSc1nc(-c2ccc(F)cc2C)c2c(C#N)c[nH]c2n1 [Example 38, 2-[5-Cyano-4-(4-fluoro-2-methyl-phenyl)-7H-pyrrolo[2,3-d]pyrimidin-2-ylsulfanyl]-N-methyl-acetamide], the IC50 was < 0.5 µM.
COc1cc(-c2nc(SC)nc3[nH]cc(C#N)c23)c(Cl)cc1C#N [Example 42, 4-(2-Chloro-4-cyano-5-methoxy)-2-methylsulfanyl-7H-pyrrolo[2,3-d]pyrimidine-5-carbonitrile] was tested, and the IC50 was < 0.5 µM.
With CCc1nc(-c2ccc(F)cc2C)c2c(C#N)c[nH]c2n1 [Example 18, 2-Ethyl-4-(4-fluoro-2-methyl-phenyl)-7H-pyrrolo[2,3-d]pyrimidine-5-carbonitrile] the IC50 was 0.5 to 10 µM.
With CSc1nc(-c2ccc(C)cc2C)c2c(C3CC3)c[nH]c2n1 [Example 11, 5-Cyclopropyl-4-(2,4-dimethyl-phenyl)-2-methylsulfanyl-7H-pyrrolo[2,3-d]pyrimidine] the IC50 was > 10 µM.
For CSc1nc(-c2ccc(F)cc2C)c2c(C(N)=O)c[nH]c2n1 [Example 40, 4-(4-Fluoro-2-methyl-phenyl)-2-methylsulfanyl-7H-pyrrolo[2,3-d]pyrimidine-5-carboxylic Acid Amide], the IC50 was > 10 µM.
In the case of CCN(CC)CCSc1nc(-c2cc(OC)c(C#N)cc2Cl)c2c(C#N)c[nH]c2n1 [Example 37, 4-(2-Chloro-4-cyano-5-methoxy-phenyl)-2-(2-diethylamino-ethylsulfanyl)-7H-pyrrolo[2,3-d]pyrimidine-5-carbonitrile], the IC50 is reported as < 0.5 µM.
Cc1cc(F)ccc1-c1nc(N2CCN(C)CC2)nc2[nH]cc(C#N)c12 [Example 16, 4-(4-Fluoro-2-methyl-phenyl)-2-(4-methyl-piperazin-1-yl)-7H-pyrrolo[2,3-d]pyrimidine-5-carbonitrile] was tested, and the IC50 was > 10 µM.
For CCN(CC)CCSc1nc(-c2cc(OC)c(OC)cc2Cl)c2c(C#N)c[nH]c2n1 [Example 30, 4-(2-Chloro-4,5-dimethoxy-phenyl)-2-(2-diethylamino-ethylsulfanyl)-7H-pyrrolo[2,3-d]pyrimidine-5-carbonitrile], the IC50 was < 0.5 µM.
With COc1ccc(-c2nc(OCCN3CCC(F)(F)CC3)nc3[nH]cc(C#N)c23)cc1OC [Example 32, 4-(4,5-Dimethoxy-phenyl)-2-[2-(4,4-difluoro-piperidin-1-yl)-ethoxy]-7H-pyrrolo[2,3-d]pyrimidine-5-carbonitrile] the IC50 was < 0.5 µM.
For Cc1cc(F)ccc1-c1nc(SCCO)nc2[nH]cc(C#N)c12 [Example 20, 4-(4-Fluoro-2-methyl-phenyl)-2-(2-hydroxy-ethylsulfanyl)-7H-pyrrolo[2,3-d]pyrimidine-5-carbonitrile], the IC50 was < 0.5 µM.
Compound Cc1cc(F)ccc1-c1nc(OCCN2CCOCC2)nc2[nH]cc(C#N)c12 [Example 14, 4-(4-Fluoro-2-methyl-phenyl)-2-(2-morpholin-4-yl-ethoxy)-7H-pyrrolo[2,3-d]pyrimidine-5-carbonitrile] has an IC50 of 0.5 to 10 µM.
In the case of CCOC(=O)CSc1nc(-c2cc(OCCN3CCC(F)(F)C3)c(OC)cc2Cl)c2c(C#N)c[nH]c2n1 [Example 49, (4-{2-Chloro-5-[2-(3,3-difluoro-pyrrolidin-1-yl)-ethoxy]-4-methoxy-phenyl}-5-cyano-7H-pyrrolo[2,3-d]pyrimidin-2-ylsulfanyl)-acetic Acid Ethyl Ester], the IC50 is reported as < 0.5 µM.
For COc1cc(Cl)c(-c2nc(OCCN3CCC(F)(F)C3)nc3[nH]cc(C#N)c23)cc1OC [Example 36], the IC50 was < 0.5 µM.
CSc1nc(-c2ccc(C)cc2C)c2c(C)c[nH]c2n1 [Example 6, 4-(2,4-dimethyl-phenyl)-5-methyl-2-methylsulfanyl-7H-pyrrolo[2,3-d]pyrimidine] showed an IC50 of 0.5 to 10 µM.
CSc1nc(-c2ccc(C)cc2C)c2c(C#N)c[nH]c2n1 [Example 1, 4-(2,4-dimethyl-phenyl)-2-methylsulfanyl-7H-pyrrolo[2,3-d]pyrimidine-5-carbonitrile] was tested, and the IC50 was < 0.5 µM.
In the case of COc1ccc(-c2nc(OCCN3CCC(F)(F)C3)nc3[nH]cc(C#N)c23)cc1OC [Example 33, 2-[2-(3,3-Difluoro-pyrrolidin-1-yl)-ethoxy]-4-(3,4-dimethoxy-phenyl)-7H-pyrrolo[2,3-d]pyrimidine-5-carbonitrile], the IC50 is reported as 0.5 to 10 µM.
With CSc1nc(-c2ccc(F)cc2C)c2c(C#N)c[nH]c2n1 [Example 4, 4-(2-methyl-4-fluoro-phenyl)-2-methylsulfanyl-7H-pyrrolo[2,3-d]pyrimidine-5-carbonitrile] the IC50 was < 0.5 µM.
With CSc1nc(-c2ccc(C#N)cc2)c2c(C#N)c[nH]c2n1 [Example 3, 4-(4-cyano-phenyl)-2-methylsulfanyl-7H-pyrrolo[2,3-d]pyrimidine-5-carbonitrile] the IC50 was < 0.5 µM.
For COc1cc(Cl)c(-c2nc(SCC(=O)O)nc3[nH]cc(C#N)c23)cc1OCCN1CCC(F)(F)C1 [Example 50, (4-{2-Chloro-5-[2-(3,3-difluoro-pyrrolidin-1-yl)-ethoxy]-4-methoxy-phenyl}-5-cyano-7H-pyrrolo[2,3-d]pyrimidin-2-ylsulfanyl)-acetic Acid], the IC50 was < 0.5 µM.
For CNc1nc(-c2ccc(F)cc2C)c2c(C#N)c[nH]c2n1 [Example 17, 4-(4-Fluoro-2-methyl-phenyl)-2-methylamino-7H-pyrrolo[2,3-d]pyrimidine-5-carbonitrile], the IC50 was 0.5 to 10 µM.
With COc1ccc(-c2nc(OCCN3CC[C@H](F)C3)nc3[nH]cc(C#N)c23)cc1OC [Example 34, 4-(3,4-Dimethoxy-phenyl)-2-[2-(3(S)-fluoro-pyrrolidin-1-yl)-ethoxy]-7H-pyrrolo[2,3-d]pyrimidine-5-carbonitrile] the IC50 was 0.5 to 10 µM.
COc1cc(Cl)c(-c2nc(S(C)(=O)=O)nc3[nH]cc(C#N)c23)cc1OC [Example 48, 4-(2-Chloro-4,5-dimethoxy-phenyl)-2-methanesulfonyl-7H-pyrrolo[2,3-d]pyrimidine-5-carbonitrile] showed an IC50 of 0.5 to 10 µM.
